Experimental data taken from US20150374673A1, “Combination Therapy for the Treatment of Nosocomial Pneumonia” (priority 2013, published 2015).
Like-named read-outs stand apart in the source and are kept apart here.

Legend:
Assay in all cases: Initial MIC, microbroth dilution (CLSI), avibactam 4 mg/L
Type in all cases: cell-based
E. faecalis = tested on: E. faecalis
Description: (§1) All MIC determinations including those performed in the checkerboard assay were done in cation-adjusted Mueller-Hinton broth (purchased from Becton Dickinson, Oxford UK). […]

S. aureus = tested on: S. aureus
Description: as §1

E. cloacae = conditions: Enterobacter cloacae
Description: as §1

E. coli = conditions: Escherichia coli
Description: as §1

K. pneumoniae = conditions: Klebsiella pneumoniae
Description: (§2) All MIC determinations including those performed in the checkerboard assay were done in cation-adjusted Mueller-Hinton broth (purchased from Becton Dickinson, Oxford UK).
(§3) Initial MIC data were determined by microbroth dilution methods as recommended by CLSI (2012b). Checkerboards were made in accordance with the method given by Pillai et. al., ? Antimicrobial Combinations in Antibiotics, LABORATORY MEDICINE (Lorian Ed., 3rd Ed. (2003)) p. 365-440 as per standard microbroth dilution tests but with agents in combination. […] A final avibactam concentration of 4 mg/L was used throughout the study. Antibacterial agents were combined into microtitre plates using the Evolution III liquid handling system.

P. aeruginosa = conditions: Pseudomonas aeruginosa
Description: as §2, §3

[1] = isolate 23 S. aureus Basal MICs, Penicillinase+
[2] = isolate 24 S. aureus Basal MICs, Penicillinase+

CN[C@H](CC(C)C)C(=O)N[C@H]1C(=O)N[C@@H](CC(N)=O)C(=O)N[C@H]2C(=O)N[C@H]3C(=O)N[C@H](C(=O)N[C@H](C(=O)O)c4cc(O)cc(O)c4-c4cc3ccc4O)[C@H](O)c3ccc(c(Cl)c3)Oc3cc2cc(c3O[C@@H]2O[C@H](CO)[C@@H](O)[C@H](O)[C@H]2O[C@H]2C[C@](C)(N)[C@H](O)[C@H](C)O2)Oc2ccc(cc2Cl)[C@H]1O [Vancomycin]
MIC (E. faecalis; Enterococcus faecalis, isolate 25 E. faecalis Basal MICs): 1 µg/mL | MIC (E. faecalis; Enterococcus faecalis, isolate 26 E. faecalis Basal MICs): 2 µg/mL | MIC (E. faecalis; Enterococcus faecalis, isolate 27 E. faecalis Basal MICs): 2 µg/mL | MIC (S. aureus; Staphylococcus aureus): 1 µg/mL | MIC (S. aureus; [1]): 1 µg/mL | MIC (S. aureus; [2]): 1 µg/mL

CN(C)c1cc(NC(=O)CNC(C)(C)C)c(O)c2c1C[C@H]1C[C@H]3[C@H](N(C)C)C(O)=C(C(N)=O)C(=O)[C@@]3(O)C(O)=C1C2=O [Tigecycline]
MIC (E. cloacae; isolate 1 E. cloacae Basal MICs, read-out: MIC): 0.5 µg/mL | MIC (E. cloacae; isolate 2 E. cloacae Derepressed AmpC): 1 µg/mL | MIC (E. cloacae; isolate 3 E. cloacae Derepressed AmpC): 0.5 µg/mL | MIC (E. coli; isolate 4 E. coli Basal MICs, read-out: MIC): 0.12 µg/mL | MIC (E. coli; isolate 5 E. coli CTX-M-15): 0.25 µg/mL | MIC (E. coli; isolate 6 E. coli TEM-4): 0.5 µg/mL | MIC (E. coli; isolate 7 E. coli SHV-12): 0.5 µg/mL | MIC (E. coli; isolate 8 E. coli SHV-2): 0.25 µg/mL | MIC (E. faecalis; Enterococcus faecalis): 0.06 µg/mL | MIC (E. faecalis; isolate 26 E. faecalis Basal MICs): 0.06 µg/mL | MIC (E. faecalis; isolate 27 E. faecalis Basal MICs): 0.06 µg/mL | MIC (S. aureus; Staphylococcus aureus): 0.12 µg/mL | MIC (S. aureus; [1]): 0.12 µg/mL | MIC (S. aureus; [2]): 0.12 µg/mL | MIC (K. pneumoniae; isolate 9 K. pneumoniae Basal MICs, read-out: MIC): 0.25 µg/mL | MIC (K. pneumoniae; isolate 10 K. pneumoniae TEM-4): 0.25 µg/mL | MIC (K. pneumoniae; isolate 11 K. pneumoniae CTX-M-15): 1 µg/mL | MIC (K. pneumoniae; isolate 12 K. pneumoniae SHV-12): 0.5 µg/mL | MIC (K. pneumoniae; isolate 13 K. pneumoniae KPC-3): 1 µg/mL | MIC (K. pneumoniae; isolate 14 K. pneumoniae KPC-3): 0.25 µg/mL | MIC (K. pneumoniae; isolate 15 K. pneumoniae KPC-2): 0.5 µg/mL | MIC (P. aeruginosa; isolate 16 P. aeruginosa Basal MICs, read-out: MIC): 16 µg/mL | MIC (P. aeruginosa; isolate 17 P. aeruginosa Derepressed AmpC): 32 µg/mL | MIC (P. aeruginosa; isolate 18 P. aeruginosa Derepressed AmpC): 32 µg/mL | MIC (P. aeruginosa; isolate 19 P. aeruginosa PER, read-out: MIC): 32 µg/mL | MIC (P. aeruginosa; isolate 20 P. aeruginosa KPC-2): 16 µg/mL | MIC (P. aeruginosa; isolate 21 P. aeruginosa KPC-2): 2 µg/mL

CC(=O)NC[C@H]1CN(c2ccc(N3CCOCC3)c(F)c2)C(=O)O1 [Linezolid]
MIC (E. faecalis; Enterococcus faecalis, isolate 25 E. faecalis Basal MICs, read-out: MIC): 1 µg/mL | MIC (E. faecalis; Enterococcus faecalis, isolate 26 E. faecalis Basal MICs, read-out: MIC): 2 µg/mL | MIC (E. faecalis; Enterococcus faecalis, isolate 27 E. faecalis Basal MICs, read-out: MIC): 2 µg/mL | MIC (S. aureus; Staphylococcus aureus, isolate 22 S. aureus Basal MICs, read-out: MIC): 2 µg/mL | MIC (S. aureus; Staphylococcus aureus, isolate 23 S. aureus Basal MICs, Penicillinase+, read-out: MIC): 2 µg/mL | MIC (S. aureus; Staphylococcus aureus, isolate 24 S. aureus Basal MICs, Penicillinase+, read-out: MIC): 2 µg/mL
